{"source": "patent US20070249673A1", "about": "“Method for administering tolperisone” (priority 2006, published 2007)", "experiment": "Pharmacokinetic profile of tolperisone after single and multi-dosing (150 mg regimen over 7 days) in healthy subjects under fasted and fed conditions", "details": "for AUC(0-t) / AUC(inf) / Cmax / t½ / λz / AUC(0-6): mean ± SD; for Tmax: median", "key": {"[1]": {"details": "Day 1 - 0800 Dose, Fasted, Females"}, "[2]": {"details": "Day 1 - 0800 Dose, Fasted, Males"}, "[3]": {"details": "Day 1 - 0800 Dose, Fasted, both sexes"}, "[4]": {"details": "Day 1 - 0800 Dose, Fed, Females"}, "[5]": {"details": "Day 1 - 0800 Dose, Fed, both sexes"}, "[6]": {"details": "Day 1, fed vs fasted, both sexes"}, "[7]": {"details": "Day 2 - 2200 Dose, Fasted, Females"}, "[8]": {"details": "Day 2 - 2200 Dose, Fasted, Males"}, "[9]": {"details": "Day 2 - 2200 Dose, Fasted, both sexes"}, "[10]": {"details": "Day 2 - 2200 Dose, Fed, Females"}, "[11]": {"details": "Day 2 - 2200 Dose, Fed, both sexes"}, "[12]": {"details": "Day 7 - 0800 Dose, Fasted, Females"}, "[13]": {"details": "Day 7 - 0800 Dose, Fasted, Males"}, "[14]": {"details": "Day 7 - 0800 Dose, Fasted, both sexes"}, "[15]": {"details": "Day 7 - 0800 Dose, Fed, Females"}, "[16]": {"details": "Day 7 - 0800 Dose, Fed, both sexes"}, "[17]": {"details": "Day 7 - 2200 Dose, Fasted, Females"}, "[18]": {"details": "Day 7 - 2200 Dose, Fasted, Males"}, "[19]": {"details": "Day 7 - 2200 Dose, Fasted, both sexes"}, "[20]": {"details": "Day 7 - 2200 Dose, Fed, Females"}, "[21]": {"details": "Day 7 - 2200 Dose, Fed, both sexes"}}, "method": "Dosing Regimen: Subjects in each cohort received tolperisone according to the following regimen.\nBlood samples for the measurement of the plasma concentrations of tolperisone and metabolites M1 (4-hydroxymethyltolperisone) and M4 (4-carboxy-tolperisone) were collected at the times shown in Table 8.\nBioanalytical: Plasma concentrations of tolperisone and metabolites M1 and M4 were measured using a validated LC/MS/MS assay by Pharm-analyt Laboratory, Baden Austria. The limits of quantitation (LOQ) for tolperisone, Mi, and M4 in plasma were 0.2 ng/ML, and 0.01 μg/mL, respectively.\nPharmacokinetic Analyses: Pharmacokinetic parameters for tolperisone, M1, and M4 were calculated using non-compartmental analysis. Only plasma concentrations greater than or equal to the LOQ for the respective assay were used in the pharmacokinetic analyses. Actual blood sampling times were used in all pharmacokinetic analyses. […] All pharmacokinetic calculations were done using SAS® for Windows® Version 9.1.3.\nThe maximum plasma concentration (Cmax) and time to Cmax (Tmax) were taken directly from the data. The elimination rate constant, λz, was calculated as the negative of the slope of the terminal log-linear segment of the plasma concentration-time curve. The range of data to be used for each subject and treatment was determined by visual inspection of a semi-logarithmic plot of concentration versus time. Elimination half-life (t½) was calculated according to the following equation: [formula] Area under the curve to the final sample with a concentration greater than or equal to the LOQ [(AUC(0-t)] was calculated using the linear trapezoidal method and extrapolated to infinity [AUC(inf)] using: [formula] where Ctf is the final concentration≧LOQ.\nThe maximum plasma concentration (Cmax) and time to Cmax (Tmax) were taken directly from the data.\nThe maximum plasma concentration (Cmax) and time to Cmax (Tmax) were taken directly from the data. The elimination rate constant, λz, and half-life, t½, were calculated as described for the 0800 dose on Day 1 (above). Areas under the curve to the final sample with a concentration greater than or equal to the LOQ [(AUC(O-t)] and over the 6-hour dosing interval [AUC(0-6)] were calculated using the linear trapezoidal method.", "data": [{"smiles": "CC(CN1CCCCC1)C(=O)c1ccc(C(=O)O)cc1", "note": "(racemic) [Metabolite M4, 4-carboxy-tolperisone]", "values": [{"measurement": "AUC(0-t)", "setting": "[1]", "value": "2.79 ± 0.37 (3) h · μg/mL"}, {"measurement": "AUC(inf)", "setting": "[1]", "value": "2.86 ± 0.40 (3) h · μg/mL"}, {"measurement": "Cmax", "setting": "[1]", "value": "1.31 ± 0.05 (3) μg/mL"}, {"measurement": "t½", "setting": "[1]", "value": "0.99 ± 0.04 (3) h"}, {"measurement": "λz", "setting": "[1]", "value": "0.6981 ± 0.0253 (3) h^−1"}, {"measurement": "Tmax", "setting": "[1]", "value": "1.00 (3) h"}, {"measurement": "AUC(0-t)", "setting": "[2]", "value": "2.26 ± 0.42 (7) h · μg/mL"}, {"measurement": "AUC(inf)", "setting": "[2]", "value": "2.34 ± 0.44 (7) h · μg/mL"}, {"measurement": "Cmax", "setting": "[2]", "value": "1.31 ± 0.44 (7) μg/mL"}, {"measurement": "t½", "setting": "[2]", "value": "1.10 ± 0.08 (7) h"}, {"measurement": "λz", "setting": "[2]", "value": "0.6321 ± 0.0488 (7) h^−1"}, {"measurement": "Tmax", "setting": "[2]", "value": "0.75 (7) h"}, {"measurement": "AUC(0-t)", "setting": "[3]", "value": "2.42 ± 0.46 (10) h · μg/mL"}, {"measurement": "AUC(inf)", "setting": "[3]", "value": "2.49 ± 0.48 (10) h · μg/mL"}, {"measurement": "Cmax", "setting": "[3]", "value": "1.31 ± 0.36 (10) μg/mL"}, {"measurement": "t½", "setting": "[3]", "value": "1.07 ± 0.088 (10) h"}, {"measurement": "λz", "setting": "[3]", "value": "0.6519 ± 0.0524 (10) h^−1"}, {"measurement": "Tmax", "setting": "[3]", "value": "0.88 (10) h"}, {"measurement": "AUC(0-t)", "setting": "[4]", "value": "2.74 ± 0.74 (4) h · μg/mL"}, {"measurement": "AUC(inf)", "setting": "[4]", "value": "2.94 ± 0.84 (4) h · μg/mL"}, {"measurement": "Cmax", "setting": "[4]", "value": "1.02 ± 0.18 (4) μg/mL"}, {"measurement": "t½", "setting": "[4]", "value": "1.16 ± 0.21 (4) h"}, {"measurement": "λz", "setting": "[4]", "value": "0.6189 ± 0.1389 (4) h^−1"}, {"measurement": "Tmax", "setting": "[4]", "value": "2.00 (4) h"}, {"measurement": "AUC(0-t)", "setting": "Day 1 - 0800 Dose, Fed, Males", "value": "2.32 ± 0.70 (6) h · μg/mL"}, {"measurement": "AUC(inf)", "setting": "Day 1 - 0800 Dose, Fed, Males", "value": "2.43 ± 0.76 (6) h · μg/mL"}, {"measurement": "Cmax", "setting": "Day 1 - 0800 Dose, Fed, Males", "value": "1.27 ± 0.45 (6) μg/mL"}, {"measurement": "t½", "setting": "Day 1 - 0800 Dose, Fed, Males", "value": "1.17 ± 0.19 (6) h"}, {"measurement": "λz", "setting": "Day 1 - 0800 Dose, Fed, Males", "value": "0.6047 ± 0.0938 (6) h^−1"}, {"measurement": "Tmax", "setting": "Day 1 - 0800 Dose, Fed, Males", "value": "0.88 (6) h"}, {"measurement": "AUC(0-t)", "setting": "[5]", "value": "2.49 ± 0.70 (10) h · μg/mL"}, {"measurement": "AUC(inf)", "setting": "[5]", "value": "2.64 ± 0.79 (10) h · μg/mL"}, {"measurement": "Cmax", "setting": "[5]", "value": "1.17 ± 0.38 (10) μg/mL"}, {"measurement": "t½", "setting": "[5]", "value": "1.16 ± 0.19 (10) h"}, {"measurement": "λz", "setting": "[5]", "value": "0.6104 ± 0.1067 (10) h^−1"}, {"measurement": "Tmax", "setting": "[5]", "value": "1.50 (10) h"}, {"measurement": "decrease in the mean value for Cmax on administration with food", "setting": "[6]", "value": 11, "unit": "%"}, {"measurement": "increase in the mean value for AUC(inf) on administration with food", "setting": "[6]", "value": 6, "unit": "%"}, {"measurement": "Cmax", "setting": "[7]", "value": "0.96 ± 0.48 (3) μg/mL"}, {"measurement": "Tmax", "setting": "[7]", "value": "1.00 (3) h"}, {"measurement": "Cmax", "setting": "[8]", "value": "0.53 ± 0.32 (7) μg/mL"}, {"measurement": "Tmax", "setting": "[8]", "value": "1.50 (7) h"}, {"measurement": "Cmax", "setting": "[9]", "value": "0.66 ± 0.40 (10) μg/mL"}, {"measurement": "Tmax", "setting": "[9]", "value": "1.25 (10) h"}, {"measurement": "Cmax", "setting": "[10]", "value": "0.82 ± 0.41 (4) μg/mL"}, {"measurement": "Tmax", "setting": "[10]", "value": "1.25 (4) h"}, {"measurement": "Cmax", "setting": "Day 2 - 2200 Dose, Fed, Males", "value": "0.75 ± 0.42 (6) μg/mL"}, {"measurement": "Tmax", "setting": "Day 2 - 2200 Dose, Fed, Males", "value": "1.00 (6) h"}, {"measurement": "Cmax", "setting": "[11]", "value": "0.78 ± 0.40 (10) μg/mL"}, {"measurement": "Tmax", "setting": "[11]", "value": "1.00 (10) h"}, {"measurement": "mean AUC(0-6) under fed conditions lower than fasted", "setting": "Day 7, 0800 dose, both sexes", "value": 3, "unit": "%"}, {"measurement": "mean Cmax under fed conditions lower than fasted", "setting": "Day 7, 0800 dose, both sexes", "value": 28, "unit": "%"}, {"measurement": "AUC(0-6)", "setting": "[12]", "value": "2.86 ± 0.42 (3) h · μg/mL"}, {"measurement": "Cmax", "setting": "[12]", "value": "1.57 ± 0.25 (3) μg/mL"}, {"measurement": "t½", "setting": "[12]", "value": "1.12 ± 0.08 (3) h"}, {"measurement": "λz", "setting": "[12]", "value": "0.6226 ± 0.0416 (3) h^−1"}, {"measurement": "Tmax", "setting": "[12]", "value": "0.75 (3) h"}, {"measurement": "AUC(0-6)", "setting": "[13]", "value": "2.06 ± 0.39 (7) h · μg/mL"}, {"measurement": "Cmax", "setting": "[13]", "value": "1.04 ± 0.32 (7) μg/mL"}, {"measurement": "t½", "setting": "[13]", "value": "1.20 ± 0.07 (7) h"}, {"measurement": "λz", "setting": "[13]", "value": "0.5809 ± 0.0358 (7) h^−1"}, {"measurement": "Tmax", "setting": "[13]", "value": "0.75 (7) h"}, {"measurement": "AUC(0-6)", "setting": "[14]", "value": "2.30 ± 0.54 (10) h · μg/mL"}, {"measurement": "Cmax", "setting": "[14]", "value": "1.19 ± 0.38 (10) μg/mL"}, {"measurement": "t½", "setting": "[14]", "value": "1.17 ± 0.081 (10) h"}, {"measurement": "λz", "setting": "[14]", "value": "0.5934 ± 0.0406 (10) h^−1"}, {"measurement": "Tmax", "setting": "[14]", "value": "0.75 (10) h"}, {"measurement": "AUC(0-6)", "setting": "[15]", "value": "2.31 ± 0.39 (4) h · μg/mL"}, {"measurement": "Cmax", "setting": "[15]", "value": "0.95 ± 0.45 (4) μg/mL"}, {"measurement": "t½", "setting": "[15]", "value": "1.10 ± 0.20 (3) h"}, {"measurement": "λz", "setting": "[15]", "value": "0.6452 ± 0.1199 (3) h^−1"}, {"measurement": "Tmax", "setting": "[15]", "value": "2.00 (4) h"}, {"measurement": "AUC(0-6)", "setting": "Day 7 - 0800 Dose, Fed, Males", "value": "2.17 ± 0.57 (6) h · μg/mL"}, {"measurement": "Cmax", "setting": "Day 7 - 0800 Dose, Fed, Males", "value": "0.80 ± 0.24 (6) μg/mL"}, {"measurement": "t½", "setting": "Day 7 - 0800 Dose, Fed, Males", "value": "1.21 ± 0.30 (6) h"}, {"measurement": "λz", "setting": "Day 7 - 0800 Dose, Fed, Males", "value": "0.5978 ± 0.1116 (6) h^−1"}, {"measurement": "Tmax", "setting": "Day 7 - 0800 Dose, Fed, Males", "value": "1.75 (6) h"}, {"measurement": "AUC(0-6)", "setting": "[16]", "value": "2.23 ± 0.49 (10) h · μg/mL"}, {"measurement": "Cmax", "setting": "[16]", "value": "0.86 ± 0.32 (10) μg/mL"}, {"measurement": "t½", "setting": "[16]", "value": "1.17 ± 0.26 (09) h"}, {"measurement": "λz", "setting": "[16]", "value": "0.6136 ± 0.1092 (09) h^−1"}, {"measurement": "Tmax", "setting": "[16]", "value": "2.00 (10) h"}, {"measurement": "Cmax", "setting": "[17]", "value": "1.40 ± 0.21 (3) μg/mL"}, {"measurement": "Tmax", "setting": "[17]", "value": "1.50 (3) h"}, {"measurement": "Cmax", "setting": "[18]", "value": "0.844 ± 0.243 (7) μg/mL"}, {"measurement": "Tmax", "setting": "[18]", "value": "1.03 (7) h"}, {"measurement": "Cmax", "setting": "[19]", "value": "1.01 ± 0.35 (10) μg/mL"}, {"measurement": "Tmax", "setting": "[19]", "value": "1.27 (10) h"}, {"measurement": "Cmax", "setting": "[20]", "value": "0.99 ± 0.25 (4) μg/mL"}, {"measurement": "Tmax", "setting": "[20]", "value": "1.25 (4) h"}, {"measurement": "Cmax", "setting": "Day 7 - 2200 Dose, Fed, Males", "value": "0.94 ± 0.25 (6) μg/mL"}, {"measurement": "Tmax", "setting": "Day 7 - 2200 Dose, Fed, Males", "value": "1.04 (6) h"}, {"measurement": "Cmax", "setting": "[21]", "value": "0.96 ± 0.24 (10) μg/mL"}, {"measurement": "Tmax", "setting": "[21]", "value": "1.04 (10) h"}, {"measurement": "accumulation (increase in Cmax over the seven days of dosing)", "setting": "seven days of dosing, up to 150 mg three times daily", "value": "little or no accumulation"}, {"measurement": "mean elimination half-life", "setting": "summary, not dependent on sex, food or duration of dosing", "value": "~1.1", "unit": "h"}]}]}
